{"source": "patent US7176237B2", "about": "“Tricyclic-bis-enone derivatives and methods of use thereof” (The Trustees of Dartmouth College, priority 2002, dated 2007)", "key": {"[1]": {"test_system": "NO production induced by IFN-γ in mouse macrophages", "assay": "iNOS assay: inhibition of NO production induced by IFN-γ in mouse macrophages", "format": "cell-based", "details": "for IC50: Macrophage"}, "[2]": {"test_system": "iNOS mRNA in RAW 264.7 cells", "assay": "Suppression of iNOS mRNA formation in RAW 264.7 cells", "format": "cell-based", "procedure": "(§1) Standard methodology already in place in the inventors laboratory (Suh et al., 1998, 1999, incorporated herein by reference) can be used to evaluate the biological activity of newly synthesized TBEs using suppression of de novo synthesis of iNOS and COX-2 as endpoints. Briefly, primary mouse macrophages or RAW264.7 cells can be cultured under standard conditions and stimulated with either interferon-γ or lipopolysaccharide (LPS). TBEs are added to cell cultures at the same time as inducers. Nitric oxide production in cell culture supernatants can be measured as nitrite accumulation by the Griess reaction. Analysis of levels of iNOS protein in lysates of primary macrophages or RAW cells can be done by Western blot analysis, while levels of iNOS mRNA can be done by routine Northern blot analysis. Prostaglandin E2 production is measured with a commercially available ELISA assay kit, and […] protein and mRNA levels can measured by routine Western and Northern blot analysis, respectively. All these methods are well known in the art."}, "[3]": {"test_system": "NRP-152 prostate epithelial cells", "assay": "Inhibition of proliferation of NRP-152 prostate epithelial cells", "format": "cell-based", "details": "Rattus norvegicus, Epithelial cell, read-out: IC50 level, inhibition of proliferation"}, "[4]": {"test_system": "COX-2 mRNA in RAW 264.7 cells", "assay": "Suppression of COX-2 mRNA formation in RAW 264.7 cells", "format": "cell-based", "procedure": "as §1"}, "[5]": {"test_system": "MCF-7 breast cancer cells (ER-positive)", "assay": "Inhibition of estrogen-stimulated growth of MCF-7 breast cancer cells", "format": "cell-based, human"}, "[6]": {"test_system": "activation of macrophages in CD-1 mice", "format": "in vivo"}, "[7]": {"test_system": "several cancer cell lines", "assay": "Inhibitory activity against several cancer cell lines (data not shown)", "format": "cell-based"}, "[8]": {"details": "blocking of induction of iNOS by IFN-γ, NO production in mouse macrophages, read-out: Activity IC50"}}, "note": "Read-outs that look alike come from different tables or passages of the source.", "data": [{"smiles": "CC1(C)C(=O)C(C#N)=C[C@]2(C)C3=CCC[C@@H](O)[C@]3(C)CC[C@@H]12", "note": "(racemic) [(±)-TBE-1]", "values": [{"measurement": "IC50", "setting": "[1]; [8]", "value": 310, "unit": "nM"}]}, {"smiles": "CC(=O)O[C@@H]1CCC=C2[C@@]3(C)C=C(C#N)C(=O)C(C)(C)[C@@H]3CC[C@]21C", "note": "(racemic) [(±)-TBE-2]", "values": [{"measurement": "IC50", "setting": "[1]; [8]", "value": 480, "unit": "nM"}]}, {"smiles": "CC(=O)O[C@@H]1CC(=O)C=C2[C@@]3(C)C=C(C#N)C(=O)C(C)(C)[C@@H]3CC[C@]21C", "note": "(racemic) [(±)-TBE-3]", "values": [{"measurement": "potency, times less than CDDO (iNOS mRNA)", "setting": "[2]; RAW cells", "value": "about 10 times"}, {"measurement": "formation of iNOS mRNA", "setting": "[2]; at 1 μM in RAW cells", "value": "suppresses"}, {"measurement": "IC50", "setting": "[1]; [8]", "value": 53, "unit": "nM"}, {"measurement": "IC50", "setting": "[3]", "value": "~100", "unit": "nM"}, {"measurement": "potency, times less than CDDO (COX-2 mRNA)", "setting": "[4]; RAW cells", "value": "about 10 times"}, {"measurement": "formation of COX-2 mRNA", "setting": "[4]; at 1 μM in RAW cells", "value": "suppresses"}]}, {"smiles": "CC1(C)C(=O)C(C#N)=C[C@]2(C)C3=CC(=O)C[C@@H](O)[C@]3(C)CC[C@@H]12", "note": "(racemic) [(±)-TBE-4]", "values": [{"measurement": "IC50", "setting": "[1]; [8]", "value": 75, "unit": "nM"}]}, {"smiles": "CC1(C)C(=O)C(C#N)=C[C@]2(C)C3=CC(=O)C=C[C@]3(C)CC[C@@H]12", "note": "(racemic) [(±)-TBE-5]", "values": [{"measurement": "IC50", "setting": "[1]; NO production induced by IFN-γ in mouse macrophages, order-of-magnitude level, read-out: IC50 level stated in text", "value": "~10", "unit": "nM"}, {"measurement": "IC50", "setting": "[1]; [8]", "value": 61, "unit": "nM"}, {"measurement": "IC50", "setting": "[3]", "value": "~100", "unit": "nM"}]}, {"smiles": "COC(=O)C1=C[C@]2(C)CC[C@H]3C(C)(C)C(=O)C(C#N)=C[C@]3(C)C2=CC1=O", "note": "(racemic) [(±)-TBE-6]", "values": [{"measurement": "IC50", "setting": "[1]; [8]", "value": 91, "unit": "nM"}]}, {"smiles": "CC1(C)C(=O)C(C#N)=C[C@]2(C)C3=CC(=O)C(C(=O)O)=C[C@]3(C)CC[C@@H]12", "note": "(racemic) [(±)-TBE-7]", "values": [{"measurement": "IC50", "setting": "[1]; [8]", "value": 1600, "unit": "nM"}]}, {"smiles": "CC1(C)C(=O)C(C#N)=C[C@]2(C)C3=CC(=O)C(C(N)=O)=C[C@]3(C)CC[C@@H]12", "note": "(racemic) [(±)-TBE-8]", "values": [{"measurement": "IC50", "setting": "[1]; [8]", "value": 61, "unit": "nM"}]}, {"smiles": "CC1(C)C(=O)C(C#N)=C[C@]2(C)C3=CC(=O)C(C#N)=C[C@]3(C)CC[C@@H]12", "note": "(racemic) [(±)-TBE-9]", "values": [{"measurement": "potency, times more than TBE-5", "setting": "[5]", "value": "about 30 times"}, {"measurement": "concentration range of dose-dependent inhibition of estrogen-stimulated growth", "setting": "[5]; MCF-7 (ER-positive)", "value": "10 to 1000", "unit": "nM"}, {"measurement": "times more potent than TBE-5", "setting": "[1]", "value": "~30", "unit": "times"}, {"measurement": "IC50", "setting": "[1]; [8]", "value": 2.1, "unit": "nM"}, {"measurement": "IC50", "setting": "[1]; Mus musculus, iNOS assay, order-of-magnitude level, read-out: IC50 level stated in text", "value": "~1", "unit": "nM"}, {"measurement": "potency in iNOS assay, statement in words", "setting": "[1]; iNOS assay", "value": "highest potency"}, {"measurement": "times more potent than hydrocortisone", "setting": "[1]; iNOS assay", "value": "about 5 times"}, {"measurement": "signs of toxicity", "setting": "[6]; 15 and 30 mg/kg oral, mouse", "value": "no signs of toxicity"}, {"measurement": "oral activity in vivo", "setting": "[6]; 15 and 30 mg/kg, administered once, oral, mouse", "value": "orally active"}, {"measurement": "activation of macrophages in mice", "setting": "[6]; CD-1 mice", "value": "blocks the activation of macrophages"}, {"measurement": "in vivo potency compared with hydrocortisone", "setting": "[6]; mouse peritoneal inflammation", "value": "much more potent than hydrocortisone"}]}, {"smiles": "CC1(C)C(=O)C(C#N)=C[C@]2(C)C3=CC(=O)CC[C@]3(C)CC[C@@H]12", "note": "(racemic) [(±)-TBE-10]", "values": [{"measurement": "times more potent than TBE-5", "setting": "[1]", "value": "about 3 times"}, {"measurement": "IC50", "setting": "[1]; [8]", "value": 19, "unit": "nM"}]}, {"smiles": "CC1(C)C(=O)C(C#N)=C[C@@]2(C)C3=CC(=O)C=C[C@@]3(C)CC[C@H]12", "note": "[(+)-TBE-5]", "values": [{"measurement": "IC50", "setting": "[1]; [8]", "value": 64, "unit": "nM"}, {"measurement": "potency in iNOS assay, statement in words", "setting": "[1]; iNOS assay", "value": "same potency"}, {"measurement": "inhibitory activity against several cancer cell lines, enantiomers compared", "setting": "[7]", "value": "same inhibitory activity"}]}, {"smiles": "CC1(C)C(=O)C(C#N)=C[C@]2(C)C3=CC(=O)C=C[C@]3(C)CC[C@@H]12", "note": "[(−)-TBE-5]", "values": [{"measurement": "IC50", "setting": "[1]; [8]", "value": 58, "unit": "nM"}, {"measurement": "potency in iNOS assay, statement in words", "setting": "[1]; iNOS assay", "value": "same potency"}, {"measurement": "inhibitory activity against several cancer cell lines, enantiomers compared", "setting": "[7]", "value": "same inhibitory activity"}]}, {"smiles": "C[C@]12CCC(=O)C=C1CC[C@@H]1[C@@H]2[C@@H](O)C[C@@]2(C)[C@H]1CC[C@]2(O)C(=O)CO", "note": "[Hydrocortisone, reference compound]", "values": [{"measurement": "IC50", "setting": "[1]; [8]", "value": 10, "unit": "nM"}]}, {"smiles": "CC1(C)CC[C@]2(C(=O)O)CC[C@]3(C)C(=CC[C@@H]4[C@@]5(C)CC[C@H](O)C(C)(C)[C@@H]5CC[C@]43C)[C@@H]2C1", "note": "[Oleanolic acid, reference compound]", "values": [{"measurement": "IC50", "setting": "[1]; [8]", "value": "> 40000", "unit": "nM"}]}]}
